Like-named read-outs stand apart in the source and are kept apart here.

One experiment relates to Cox B3. The experiment in a line: Anti-Coxsackie B3 CPE inhibitory assay in Vero cells. The experiment is classed as cell-based, Coxsackie viruses (Cox B3 Nancy strain). The following applies: for IC50: Cox B3, 158TCID50, CPE, Reed and Muench.
Another experiment deals with A/FM/1/47. The experiment in a line: Anti-influenza A CPE inhibitory assay in MDCK cells. The following applies: for IC50: CPE, Reed and Muench. The experiment is classed as cell-based, influenza A/FM/1/47(H1N1).
A further experiment has as its system B/Jifang/13/97. The experiment in a line: Anti-influenza B CPE assay. The experiment is classed as cell-based.
The test system of a further experiment is HSV-1. The experiment in a line: Anti-HSV-1 CPE assay in Vero cells. The experiment is classed as cell-based, HSV-1 virus.

On to `COC(=O)c1cc2c(OCC(C)C)cc(N)cc2[nH]1` [Compound 8f, Methyl 6-amino-4-isobutoxy-1H-indole-2-carboxylate], for which the half-maximal inhibitory concentration (IC50) (usually the concentration at which inhibition is half-maximal) in the experiment with Cox B3 (Vero) is 7.18 µM; in the experiment on A/FM/1/47 (Influenza A virus, MDCK), 9.43 µM; with B/Jifang/13/97 (Influenza B virus), over 9.43 µM; with HSV-1 (Human alphaherpesvirus 1, Vero), over 28.3 µM.
As to `COC(=O)c1cc2c(OCc3ccccc3)cc(OC)cc2[nH]1` [Compound 12e, Methyl 4-(benzyloxy)-6-methoxy-1H-indole-2-carboxylate], the IC50 with Cox B3 (Vero) is over 7.94 µM; in the experiment with B/Jifang/13/97 (Influenza B virus), over 23.8 µM; in the experiment on HSV-1 (Human alphaherpesvirus 1, Vero) it was over 7.94 µM.
With `NC(=O)c1ncn([C@@H]2O[C@H](CO)[C@@H](O)[C@H]2O)n1` [RBV, ribavirin, reference compound], the IC50 in the experiment with Cox B3 (Vero) is 1060 µM; in the experiment on A/FM/1/47 (Influenza A virus, MDCK), 2.58 µM; with B/Jifang/13/97 (Influenza B virus), 10.1 µM.
On to `COC(=O)c1cc2c(OC)cc(N)cc2[nH]1` [Compound 1f, Methyl 6-amino-4-methoxy-1H-indole-2-carboxylate], for which the 50% inhibitory concentration (IC50) in the experiment on Cox B3 (Vero) is over 33.7 µM; in the experiment on A/FM/1/47 (Influenza A virus, MDCK) it was under 52 µM; in the experiment on A/FM/1/47 it was 33.7 µM; with B/Jifang/13/97 (Influenza B virus), over 33.7 µM; in the experiment on HSV-1 (Human alphaherpesvirus 1, Vero) it was over 33.7 µM.
For `C=CCOc1cc(N)cc2[nH]c(C(=O)OC)cc12` [Compound 6f, Methyl 4-(allyloxy)-6-amino-1H-indole-2-carboxylate], the half-maximal inhibitory concentration (IC50) with Cox B3 was 30.1 µM; in the experiment with Cox B3 (Vero), under 50 µM; in the experiment with A/FM/1/47 (Influenza A virus, MDCK), under 52 µM; in the experiment on B/Jifang/13/97 (Influenza B virus), over 30.1 µM; in the experiment on HSV-1 (Human alphaherpesvirus 1, Vero) it was over 30.1 µM.
Take `COC(=O)c1cc2c(OCc3ccccc3)cc(N)cc2[nH]1` [Compound 2f, Methyl 6-amino-4-(benzyloxy)-1H-indole-2-carboxylate]: the IC50 is 1.59 µM in the experiment on Cox B3 (Vero); over 25.1 µM with A/FM/1/47 (Influenza A virus, MDCK); over 2.78 µM in the experiment with HSV-1 (Human alphaherpesvirus 1, Vero).
Regarding `COC(=O)c1cc2c(OCc3ccccc3)cc(NC(C)=O)cc2[nH]1` [Compound 2e, Methyl 6-acetamido-4-(benzyloxy)-1H-indole-2-carboxylate], the half-maximal inhibitory concentration (IC50) is over 21.9 µM with Cox B3 (Vero); over 65.7 µM with A/FM/1/47 (Influenza A virus, MDCK); over 21.9 µM with HSV-1 (Human alphaherpesvirus 1, Vero).
Consider `COC(=O)c1cc2c(OCC(C)C)cc(NC(C)=O)cc2[nH]1` [Compound 8e, Methyl 6-acetamido-4-isobutoxy-1H-indole-2-carboxylate], for which the IC50 with Cox B3 (Vero) was over 24.4 µM; in the experiment with A/FM/1/47 (Influenza A virus, MDCK), 8.13 µM; in the experiment on B/Jifang/13/97 (Influenza B virus), over 8.13 µM; with HSV-1 (Human alphaherpesvirus 1, Vero), over 24.4 µM.
For the molecule `Nc1nc2c(ncn2COCCO)c(=O)[nH]1` [ACV, Acyclovir, reference compound], inhibition with HSV-1 (Human alphaherpesvirus 1, Vero) was half-maximal at 1.82 µM (IC50).
Take `CCOc1cc(N)cc2[nH]c(C(=O)OC)cc12` [Compound 9f, Methyl 6-amino-4-ethoxy-1H-indole-2-carboxylate]: the concentration for half-maximal inhibition (IC50) in the experiment with Cox B3 (Vero) is over 31.7 µM; with A/FM/1/47 (Influenza A virus, MDCK), 18.3 µM; with B/Jifang/13/97 (Influenza B virus), over 31.7 µM; with HSV-1 (Human alphaherpesvirus 1, Vero) it was over 31.7 µM.
“Methyl 6-acetimidamido-4-methoxy-1H-indole-2-carboxylate [Compound 1e]”: the IC50 in the experiment on Cox B3 is over 254 µM; in the experiment on A/FM/1/47, 254 µM; in the experiment on B/Jifang/13/97, 254 µM; in the experiment with HSV-1 (HSV-1, 100TCID50, CPE, Reed and Muench), over 254 µM. In the experiment with B/Jifang/13/97, the “antiviral activity against the influenza B strain (in words)” value is “displayed antiviral activity”.
Take `COC(=O)c1cc2ccc(N(C)C)cc2[nH]1` [Compound 15e, Methyl 6-(dimethylamino)-1H-indole-2-carboxylate]: the “anti-Cox B3 activity (in words)” value in the experiment with Cox B3 is reported as “showed anti-Cox B3 activity”. The IC50 with Cox B3 was 44.7 µM; with Cox B3 (Vero), under 50 µM; with A/FM/1/47 (Influenza A virus, MDCK) it was 102 µM; in the experiment on B/Jifang/13/97 (Influenza B virus), over 102 µM; in the experiment on HSV-1 (Human alphaherpesvirus 1, Vero), 102 µM. The “anti-influenza A activity (in words)” value in the experiment on A/FM/1/47 was “showed anti-influenza A activity”. The “activity towards HSV-1 (in words)” value with HSV-1 is listed as “showed activity”.
As to `COC(=O)c1cc2c(OCc3ccc(F)cc3)cc(N)cc2[nH]1` [Compound 3f, Methyl 6-amino-4-(4-fluorobenzyloxy)-1H-indole-2-carboxylate], the 50% inhibitory concentration (IC50) is 4.55 µM in the experiment with Cox B3 (Vero); over 70.8 µM with A/FM/1/47 (Influenza A virus, MDCK); over 7.87 µM with HSV-1 (Human alphaherpesvirus 1, Vero).
For the molecule `CCOc1ccc(N)c2[nH]c(C(=O)OC)cc12` [Compound 17f, Methyl 7-amino-4-ethoxy-1H-indole-2-carboxylate], the IC50 in the experiment on Cox B3 (Vero) is 10.6 µM; in the experiment on A/FM/1/47 (Influenza A virus, MDCK) it was over 10.6 µM; in the experiment with HSV-1 (Human alphaherpesvirus 1, Vero), 10.6 µM. Further, the “activity towards HSV-1 (in words)” value with HSV-1 is “showed activity”.
As for `COC(=O)c1cc2c(OC(C)C)cc(N)cc2[nH]1` [Compound 10f, Methyl 6-amino-4-isopropoxy-1H-indole-2-carboxylate], the IC50 in the experiment on Cox B3 (Vero) was over 89.6 µM; with A/FM/1/47 (Influenza A virus, MDCK) it was under 52 µM; in the experiment on A/FM/1/47 it was 51.7 µM; in the experiment with B/Jifang/13/97 (Influenza B virus) it was over 89.6 µM; in the experiment with HSV-1 (Human alphaherpesvirus 1, Vero) it was over 89.6 µM.
`CCCOc1ccc(N)c2[nH]c(C(=O)OC)cc12` [Compound 18f, Methyl 7-amino-4-propoxy-1H-indole-2-carboxylate]: the IC50 was 29.9 µM in the experiment with Cox B3; under 50 µM in the experiment with Cox B3 (Vero); over 3.31 µM in the experiment with A/FM/1/47 (Influenza A virus, MDCK); over 29.9 µM in the experiment with HSV-1 (Human alphaherpesvirus 1, Vero).
As for `COC(=O)c1cc2c(OC)ccc(N)c2[nH]1` [Compound 16f, Methyl 7-amino-4-methoxy-1H-indole-2-carboxylate], the IC50 in the experiment with Cox B3 (Vero) was over 33.7 µM; in the experiment on A/FM/1/47 (Influenza A virus, MDCK), over 3.73 µM; in the experiment on HSV-1 (Human alphaherpesvirus 1, Vero) it was over 33.7 µM.
Take `CCOC(=O)C1=C[C@@H](OC(CC)CC)[C@H](NC(C)=O)[C@@H](N)C1` [Oseltamivir, oseltamivir, reference compound]: the IC50 in the experiment on A/FM/1/47 (Influenza A virus, MDCK) worked out at 6.43 µM; in the experiment on B/Jifang/13/97 (Influenza B virus) it was 115 µM.
`COC(=O)c1cc2ccc(N)cc2[nH]1` [Compound 14f, Methyl 6-amino-1H-indole-2-carboxylate]: in the experiment with Cox B3, the “anti-Cox B3 activity (in words)” value was “showed anti-Cox B3 activity”. Moreover, the IC50 in the experiment with Cox B3 (Vero) was 67.5 µM; in the experiment on A/FM/1/47 (Influenza A virus, MDCK), 7.53 µM; in the experiment on B/Jifang/13/97 (Influenza B virus), 13 µM; in the experiment with HSV-1 (Human alphaherpesvirus 1, Vero), over 117 µM. Also, in the experiment with A/FM/1/47, the “anti-influenza A activity (in words)” value is “showed anti-influenza A activity”. In addition, the “antiviral activity against the influenza B strain (in words)” value with B/Jifang/13/97 is reported as “displayed antiviral activity”.
Regarding `COC(=O)c1cc2c(OCC3CCCCC3)cc(N)cc2[nH]1` [Compound 5f, Methyl 6-amino-4-(cyclohexylmethoxy)-1H-indole-2-carboxylate], the concentration for half-maximal inhibition (IC50) was over 2.71 µM in the experiment on Cox B3 (Vero); over 8.15 µM in the experiment on A/FM/1/47 (Influenza A virus, MDCK); over 8.15 µM with HSV-1 (Human alphaherpesvirus 1, Vero).
For `COC(=O)c1cc2c(OC)cccc2[nH]1` [Compound 11e, Methyl 4-methoxy-1H-indole-2-carboxylate], the IC50 is 108 µM in the experiment on Cox B3 (Vero); 62.6 µM with A/FM/1/47 (Influenza A virus, MDCK); over 108 µM in the experiment on B/Jifang/13/97 (Influenza B virus); over 108 µM in the experiment with HSV-1 (Human alphaherpesvirus 1, Vero).
As to `COC(=O)c1cc2ccc(NC(C)=O)cc2[nH]1` [Compound 14e, Methyl 6-acetamido-1H-indole-2-carboxylate], the “anti-Cox B3 activity (in words)” value in the experiment with Cox B3 is “showed anti-Cox B3 activity”. The IC50 was 72.8 µM in the experiment on Cox B3 (Vero); 95.8 µM in the experiment with A/FM/1/47 (Influenza A virus, MDCK); over 95.8 µM in the experiment with B/Jifang/13/97 (Influenza B virus); over 287 µM with HSV-1 (Human alphaherpesvirus 1, Vero). Also, the “anti-influenza A activity (in words)” value in the experiment on A/FM/1/47 is recorded as “showed anti-influenza A activity”.
As for `COC(=O)c1cc2c(OCc3ccc(OC)cc3)cc(N)cc2[nH]1` [Compound 4f, Methyl 6-amino-4-(4-methoxybenzyloxy)-1H-indole-2-carboxylate], the half-inhibitory concentration (IC50) with Cox B3 (Vero) is over 7.58 µM; with A/FM/1/47 (Influenza A virus, MDCK), over 205 µM; with HSV-1 (Human alphaherpesvirus 1, Vero) it was over 7.58 µM.
On to `COC(=O)c1cc2c(OC3CC3)cc(N)cc2[nH]1` [Compound 7f, Methyl 6-amino-4-cyclopropoxy-1H-indole-2-carboxylate], for which the half-maximal inhibitory concentration (IC50) with Cox B3 (Vero) is 49.4 µM; in the experiment on A/FM/1/47 (Influenza A virus, MDCK), over 85.5 µM; in the experiment with HSV-1 (Human alphaherpesvirus 1, Vero), over 85.5 µM.
For the molecule `COC(=O)c1cc2c(OCc3ccccc3)cccc2[nH]1` [Compound 13e, Methyl 4-(benzyloxy)-1H-indole-2-carboxylate], the IC50 was over 8.79 µM with Cox B3 (Vero); under 52 µM in the experiment with A/FM/1/47 (Influenza A virus, MDCK); 26.4 µM in the experiment on A/FM/1/47; over 26.4 µM in the experiment with B/Jifang/13/97 (Influenza B virus); over 8.79 µM with HSV-1 (Human alphaherpesvirus 1, Vero).

The values above are taken from PMC4629079 (Acta Pharmaceutica Sinica. B, 2014).
